Experimental findings from the METLIN SMRT retention time set (Domingo-Almenara et al. 2019) are described below.

Structures are written as SMILES.

This data set is described as follows: gradient 5% acetonitrile 3 min, to 50% in 2 min, to 85% in 15 min, held 3 min, 100 µL/min. The conditions noted are these: column: Zorbax Extend-C18 2.1 x 50 mm; eluents: water / acetonitrile, 0.1% formic acid. In a few lines:
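Retention times come from adduct peaks that were picked computationally and then checked by hand. The standards, pure and pooled in mixtures of ~100 molecules, were run on a Zorbax Extend-C18 column (2.1 × 50 mm, 1.8 μm) at 100 μL/min with water and acetonitrile, each with 0.1% formic acid. Detection was by quadrupole time-of-flight mass spectrometry in positive and negative ionization mode, with a dead volume of 40 μL and a dwell volume of 900 μL.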
`COc1ccc(OCC(=O)Nc2ccc3c(c2)N(C(=O)C(C)C)CCC3)cc1` showed an RP-LC retention time of 897 s.
Compound `CCOc1ccc2nc(NC(=O)C3CCN(C(=O)c4ccc(-c5noc(C)n5)cc4)CC3)sc2c1` returned an RP-LC retention time of 875 s.
In the case of `CCN1C(=O)C(C)(C(=O)NCc2ccccc2OC)Oc2cccnc21` (stereo not given), the RP-LC retention time worked out at 843 s.
`O=C(c1ccc(-c2cccs2)nc1)N1CCN(c2ccccn2)CC1` had an RP-LC retention time of 604 s.
`CCCN1C(=O)c2cc(S(=O)(=O)NCCc3cccs3)ccc2Oc2cccnc21` displayed an RP-LC retention time of 1050 s.
For `O=C(COc1ccccc1)N1CCc2[nH]nc(-c3ccccc3)c2C1`, the RP-LC retention time turned out to be 788 s.
The result for `CCc1cc(N2CCN(C(=O)COc3ccc(OC)cc3)CC2)nc2nnc(C)n12` reads 613 s; that for `CCOCC(=O)Nc1ccc2c(c1)Sc1ncccc1C(=O)N2CC`, 697 s.
With `COC(=O)C1C(=O)C2=C(CC1C)NC(C)=C(C(=O)OCCOC(C)C)C2c1cccc(F)c1` (stereo not given) the figure was 961 s.
Compound `CN1C(=O)c2cc(S(=O)(=O)NCc3ccccc3F)ccc2Oc2cccnc21` displayed an RP-LC retention time of 871 s.
Regarding `CN(C)CCNC(=O)C1CCc2sc(C(=O)N3CCOCC3)cc2C1` (stereo not given), the RP-LC retention time is 551 s.
`Cc1nc2c(n1C)CN(C(=O)c1ccc(Cl)s1)CC2` gave an RP-LC retention time of 574 s.
Take `Cc1[nH]c2ccccc2c1C(=O)CSc1nnc2sc3ccccc3n12`: the RP-LC retention time was found to be 829 s.
The result for `CC(=O)NCc1ccc(-c2noc(-c3ccc(F)c(Cl)c3)n2)s1` reads 955 s; that for `CN(c1ccc(F)cc1)S(=O)(=O)N1CCCC(C(=O)N2CCN(c3ncccn3)CC2)C1` (stereo not given), 864 s.
The result for `Cc1cc(C)cc(NC(=O)C2CCCN2S(C)(=O)=O)c1` (stereo not given) reads 782 s.
With `O=C(Nc1cnc(-c2ccc(Cl)cc2)nc1)c1cncc(Br)c1` the figure was 1070 s.
For the compound `CCNC(=O)N1C[C@@H]2CCCN3CCC[C@@H]([C@H]23)[C@H]1CCCC(=O)NCC1CC1`, the RP-LC retention time came to 569 s.
Compound `COC(=O)c1ccc(NS(=O)(=O)c2cc(-c3c(C)noc3NC(C)=O)ccc2OC)cc1` displayed an RP-LC retention time of 720 s.
On to `COc1ccc(CCN2CCC(CNS(=O)(=O)c3ccc4c(c3)CCCC(=O)N4)CC2)cc1`, for which the RP-LC retention time was found to be 628 s.
`O=C(Nc1cccc(-c2cn3cccnc3n2)c1)c1cccc(Br)c1` returned an RP-LC retention time of 728 s.
Take `CN(C)CCNC(=O)C1CCN(c2nc3ccc(-c4cccc(F)c4)nc3s2)CC1`: the RP-LC retention time is 691 s.
The compound `O=C(Cc1ccccc1Cl)N1CCN(c2ccc3nncn3n2)CC1` displayed an RP-LC retention time of 628 s.
With `Cc1ccc2c(c1)N(C(=O)Cn1nc3c4ccccc4ncn3c1=O)CCO2` the figure was 730 s; with `Cc1nn(CC(=O)NCC2CCCO2)c(=O)c2c(-n3cccc3)n(-c3cccc(F)c3)nc12` (stereo not given), 818 s.
With `Fc1ccc(-c2nc(-c3ccc4c(c3)ncn4CCN3CCOCC3)no2)cc1`, the RP-LC retention time is 632 s.
In turn, `Cc1cc(C)n(CCC(=O)N2CC(Oc3ccc(-c4nc(-c5ccccc5)no4)cc3)C2)n1` displayed an RP-LC retention time of 1020 s.
`COC(=O)c1scc(-c2ccc(C)cc2)c1S(=O)(=O)N1CCN(c2ccccn2)CC1`: the RP-LC retention time was 807 s.
On to `Cc1ccc(S(=O)(=O)Nc2cccc(-c3cn4cccc(C)c4n3)c2)cc1`, for which the RP-LC retention time came out at 674 s.
With `CNc1nccc(N2CCC(CC(=O)N3CCCCCC3)CC2)n1` the figure was 539 s.
As for `CCCCCn1c(=O)c2ccccc2n(Cc2nc(-c3cccc(OCC)c3)no2)c1=O`, the RP-LC retention time was 1350 s.
With `CCC(C)NC(=O)N1CCC(N2CCN(Cc3cccc(C)c3)C2=O)CC1` (stereo not given) the figure was 784 s; with `CC(C)c1nc(NC(=O)Cn2nc3c(cc2=O)CCCCC3)n[nH]1`, 632 s; with `CCCN(C)c1nccnc1OC1CCN(C(=O)c2ccoc2)C1` (stereo not given), 723 s.
`Cc1cc(C)n(-c2cc(N3CCCC(C(=O)Nc4cc(C)on4)C3)ncn2)n1` (stereo not given) gave an RP-LC retention time of 762 s.
With `COCC(=O)NC1CCC12CCN(C(=O)C1CCC1)CC2` (stereo not given) the figure was 661 s; with `CC(C)(C)NC(=O)NC1CCN(c2ccccc2)C1=O` (stereo not given), 722 s; with `CCOc1ccc2c(n1)CCN(C(=O)Nc1ccc(C)c(C)c1)C2`, 900 s.
For the compound `CCOC(=O)c1cccc(NC(=O)c2cnc(-c3ccccc3)nc2-c2ccncc2)c1`, the RP-LC retention time is 924 s.
The result for `O=C(NCCc1ccco1)c1ccc2ccnc(N3CCN(c4ccccc4)CC3)c2c1` reads 772 s.
For the compound `O=C(Cc1ccc(F)cc1)Nc1nnc(C2CC(=O)N(c3ccccc3)C2)o1` (stereo not given), the RP-LC retention time stood at 716 s.
On to `CCOC(=O)c1cnc2nc(C)ccc2c1Nc1cc(OC)cc(OC)c1`, for which the RP-LC retention time was determined as 720 s.
The result for `CCC(CN1CCOCC1)NC(=O)c1c2c(nc3ccccc13)C(=O)N(C1CCCCC1)C2` (stereo not given) reads 610 s; that for `COc1ccccc1CCNS(=O)(=O)c1cc2c3c(c1)CCC(=O)N3CCC2`, 882 s; that for `O=C(NCCC1=CCCCC1)C1CCN(c2cnc(N3CCCCC3)nc2)CC1`, 872 s.
The result for `Cc1c(C2CCN(C(=O)NCc3ccc(F)cc3)CC2)noc1N` reads 683 s; that for `Cc1cccc(-c2noc(Cn3c(=O)n(Cc4ccccc4)c(=O)c4sccc43)n2)c1`, 1060 s; that for `COc1nn(C)cc1C(=O)Nc1nc(-c2nc3ccccc3s2)cs1`, 837 s.
`CCNS(=O)(=O)c1ccc(NC(=O)C2CCN(C(=O)C(C)(C)C)CC2)cc1`: the RP-LC retention time came to 722 s.
Take `Cc1ccc2c(c1)OCC(=O)N2Cc1nc(-c2ccc(C)c(C)c2)no1`: the RP-LC retention time came out at 1160 s.
Compound `CCc1nnc2cc(N3CCN(C(=O)Nc4cccc(F)c4)CC3)cnn12` yielded an RP-LC retention time of 655 s.
With `CC(C)C(=O)Nc1ccc(C2(C(=O)NCCN3CCc4ccccc4C3)CCCCC2)cc1` the figure was 732 s.
`O=c1cc(-c2ccncc2)nc(N2CCCC2)n1Cc1cccc(F)c1`: the RP-LC retention time worked out at 1230 s.
Consider `CCCNc1c(C(=O)OC)c(=O)[nH]c2c(Cl)cccc12`, for which the RP-LC retention time was 724 s.
The compound `CCCC(=O)Nc1sccc1C(N)=O` yielded an RP-LC retention time of 625 s.
`CCC(C(=O)NCCc1c[nH]c2ccc(OC)cc12)n1c2ccccc2c2cnn(C)c(=O)c21` (stereo not given) showed an RP-LC retention time of 890 s.
With `COc1ccc(NC(=O)C2CCCN(c3nc4c(s3)c(C)nn4-c3ccc(OC)cc3)C2)cc1` (stereo not given) the figure was 1080 s.
In the case of `O=C(CC(c1ccccc1)c1ccccc1)NCCCn1ncccc1=O`, the RP-LC retention time is 702 s.
As for `COc1ccccc1-n1nnc(C(=O)Nc2nc(C)cs2)c1-c1ccccn1`, the RP-LC retention time was 758 s.
As to `CCc1nnc(-c2ccc3ccn(CC(=O)N4CCN(c5ccc(OC)cc5)CC4)c3c2)o1`, the RP-LC retention time was determined as 784 s.
Regarding `CCCNC(=O)c1c(O)c2cccnc2n(-c2ccc(OC)cc2)c1=O`, the RP-LC retention time came to 1080 s.
The result for `CCCN1C(=O)COc2ccc(-c3noc(-c4ccc5cc[nH]c5c4)n3)cc21` reads 1110 s; that for `CCCNC(=O)c1cnn(-c2cc(-c3nc(C4CC4)no3)ccn2)c1C`, 911 s; that for `Cc1ccc(C)c(N2CCN(c3ccnc(SCC(=O)NC4CCCCC4)n3)CC2)c1`, 940 s.
With `CCc1nncn1C1CCN(S(=O)(=O)c2ccc(F)cc2)CC1` the figure was 676 s; with `CCC(=O)Nc1ccc(CCc2nc3ccc(C(=O)NC(C)C)cc3[nH]2)cc1`, 813 s.
The result for `COc1ccc(OC)c(S(=O)(=O)N2CCc3nc(-c4ccc(F)cc4)ncc3C2)c1` reads 1050 s; that for `Cc1ccc(Cl)cc1N1CCN(C(=O)c2[nH]c(C)c(S(=O)(=O)N3CCC(C)CC3)c2C)CC1`, 1190 s.
Compound `CCOCCCNC(=O)N1CCN(Cc2nc3cc(C(=O)NC(C)C)ccc3n2C)CC1` showed an RP-LC retention time of 593 s.
On to `CCOC(=O)C1CCc2sc(NC(=O)c3n[nH]c4ccccc34)nc21` (stereo not given), for which the RP-LC retention time amounted to 852 s.
`COC(=O)c1cnc(N2CCN(c3cccc(C)c3)C(C)C2)c2ccccc12` (stereo not given): the RP-LC retention time stood at 1040 s.
The result for `Cc1cccc(C)c1NC(=O)Cn1cnc2onc(C)c2c1=O` reads 731 s.
`CN(C)CCCn1c2c3ccccc3ccc2c2oc(=O)c3ccccc3c21` yielded an RP-LC retention time of 802 s.
For the compound `O=C(C1CCN(c2cncnc2N2CCCCC2)CC1)N1CCCC1`, the RP-LC retention time is 554 s.
`O=C1CN(Cc2ccco2)C2CS(=O)(=O)CC2N1c1ccc(Cl)cc1` (stereo not given) registered an RP-LC retention time of 714 s.
Compound `Cc1nn(C)c(C)c1S(=O)(=O)N1CCCC(OCc2noc(C3CCOCC3)n2)C1` (stereo not given) returned an RP-LC retention time of 716 s.
`CCn1cc(C)c(C(=O)O)c1CC(=O)N(C)c1ccccc1F` showed an RP-LC retention time of 770 s.
As to `CCCc1noc(-c2cccnc2-n2cnc(C(=O)Nc3cc(C)cc(C)c3)c2)n1`, the RP-LC retention time was 1040 s.
In turn, `COc1ccccc1C(CNC(=O)c1cc(=O)c2cc(Cl)ccc2o1)N(C)C` (stereo not given) registered an RP-LC retention time of 647 s.
With `CCOc1ccc(NC(=O)N2CCC(n3c(-c4ccoc4)nc4cccnc43)C2)cc1` (stereo not given) the figure was 735 s.
